# Results published in paper PMC4457802 (PLoS ONE, 2015).
# Read-outs that look alike come from different tables or passages of the source.
# How the values were obtained:
# [1] = test system: Streptococcus pneumoniae; test: Time killing assay; type: cell-based; conditions: 1×MIC; for time to totally eliminate resistant strain: failed up to 240 min of treatment; for time to eradicate susceptible pneumococcal isolate / time to completely kill 10^6 CFU/ml of S. pneumoniae: MHB, 37°C, triplicate; for time to completely kill 10^6 CFU/ml of S. pneumoniae: sampled every 30 min to 240 min
# Method: The bactericidal activities of peptides were performed as described previously. […] 10μl of bacterial suspensions were removed at various time intervals (30, 60, 90, 120, 150, 180, 210, and 240 min), serially diluted in PBS and plated onto Columbia agar with 5% sheep blood for 20-24hr at 37°C in the presence of 5% CO2 to obtain viable colonies. Erythromycin and ceftriaxone were used as positive control and the assay was performed in triplicate.
# [2] = test system: Acinetobacter baumanii ATCC 15308; type: cell-based; conditions: numbers in parentheses are micromolar concentrations
# Source text: (§1) Thirty (30) Pneumococcal clinical isolates were obtained from University of Malaya Medical Centre (UMMC). For broad-spectrum activity of AMPs, E. coli ATCC 25922, Staphylococcus aureus ATCC 25923, P. aeruginosa ATCC 15442, Acinetobacter baumanii ATCC 15308, and one clinical isolate of each methicillin resistant S. aureus (MRSA), […], citrobacter spp., and K. pneumoniae were used in this study.
# (§2) The minimum inhibitory concentration (MIC) of the peptides against 30 pneumococcal isolates was determined by broth microdilution protocol as indicated by the CLSI guidelines (Clinical and Laboratory Standards Institute). Briefly, bacterial strains were grown for 18–24 hr at 37°C under 5% CO2. Direct suspension of the colonies were made in cationically-adjusted Müeller-Hinton broth (CAMHB) and adjusted to OD 625 0.08–0.1 which corresponds to 1 ~ 2 x10^8 CFU/ml followed by serial ten-fold dilutions to give 1x10^6 CFU/ml. 50μl of bacterial suspension were added to 96-well round bottom microtiter plates containing equal volume of peptides at different concentrations (1.95, 3.90, 7.81, 15.62, 31.25, 62.5, 125, 250μg/ml) and the 96-well plates were incubated for 20-24hr at 37°C in the presence of 5% CO2.
# [3] = test system: Enterococcus cloacae; type: cell-based; conditions: numbers in parentheses are micromolar concentrations
# Source text: as §1, §2
# [4] = test system: K. pneumoniae; type: cell-based; conditions: numbers in parentheses are micromolar concentrations
# Source text: as §1, §2
# [5] = test system: E. coli ATCC 25922; type: cell-based; conditions: numbers in parentheses are micromolar concentrations
# Source text: as §1, §2
# [6] = test system: citrobacter spp; type: cell-based; conditions: numbers in parentheses are micromolar concentrations
# Source text: as §1, §2
# [7] = test system: P. aeruginosa ATCC 15442; type: cell-based; conditions: numbers in parentheses are micromolar concentrations
# Source text: as §1, §2
# [8] = test system: Methicillin resistant S. aureus (MRSA); type: cell-based; conditions: numbers in parentheses are micromolar concentrations
# Source text: as §1, §2
# [9] = test system: S. pneumoniae (30 clinical isolates); type: cell-based, Streptococcus pneumoniae; conditions: for MIC S. pneumoniae (30 clinical isolates), in parentheses: numbers in parentheses are micromolar concentrations; for MIC S. pneumoniae (30 clinical isolates): broth microdilution, CAMHB, 20-24hr, 37°C, 5% CO2, lowest concentration that completely inhibits growth
# Source text: as §1, §2
# [10] = test system: S. aureus ATCC 25923; type: cell-based, Staphylococcus aureus; conditions: for MIC S. aureus ATCC 25923, in parentheses: numbers in parentheses are micromolar concentrations
# Source text: as §1, §2
# [11] = test system: WRL-68 normal liver cell line; type: cell-based, human
# Method: (§3) CellTiter 96 AQueous Non-Radioactive Cell Proliferation assay (Promega, USA) was used to evaluate the cytotoxic effects of peptides. WRL-68 (ATCC CL-48) and NL-20 (ATCC CRL2503) cell lines were purchased from American Type Culture Collection (ATCC, USA). The cell lines were grown in Dulbecco's modified Eagle's medium (DMEM) and Ham’s F-12 medium, respectively. Cells were supplemented with 10% (v/v) fetal bovine serum (FBS) in T75 flasks and incubated at 37°C in the presence of 5% CO2. Cells were seeded into 96-well plates at a density of 1×10^4 and 3×10^4 cells per well, respectively. Peptides were added to the wells at different concentrations (1.95, 3.90, 7.81, 15.62, 31.25, 62.5, 125, and 250μg) and plates were incubated at 37°C under 5% CO2 for 24, 48, and 72 hrs. Medium with and without cells was used as positive and negative controls, respectively. After incubation, 20μl of the reagent were added to each well and incubated for 1 hr at 37°C under 5% CO2. Metabolically active cells convert the yellow MTS to purple formazan, allowing for monitoring of the reaction. The absorbance was monitored at 490 nm using GloMax Multi Detection System (Promega, USA). The percentage of viable cells was calculated according to the following formula: 100 (AT-AB/AC-AB), where AT and AC are the absorbance of treated and control cells (100% survival). AB is the absorbance of medium alone. The assay was done in triplicate.
# [12] = test system: NL-20 normal lung cell line; type: cell-based, human
# Method: as §3
Compound,"MIC Acinetobacter baumanii ATCC 15308, in parentheses [2]","MIC Enterococcus cloacae, in parentheses [3]","MIC K. pneumoniae, in parentheses [4]","MIC E. coli ATCC 25922, in parentheses ([5]; unit of the source corrected) [µg/mL]","MIC citrobacter spp, in parentheses [6]","MIC P. aeruginosa ATCC 15442, in parentheses [7]","MIC MRSA, in parentheses ([8]; unit of the source corrected) [µg/mL]","MIC S. pneumoniae (30 clinical isolates), in parentheses ([9]; unit of the source corrected) [µg/mL]","MIC S. aureus ATCC 25923, in parentheses ([10]; unit of the source corrected) [µg/mL]","MIC P. aeruginosa ATCC 15442, in parentheses ([7]; unit of the source corrected) [µg/mL]",MIC S. pneumoniae (30 clinical isolates) [9] [µg/mL],time to completely kill 10^6 CFU/ml of S. pneumoniae [1] [min],other results
"CO/N=C(\C(=O)N[C@@H]1C(=O)N2C(C(=O)O)=C(CSc3nc(=O)c(=O)[nH]n3C)CS[C@H]12)c1csc(N)n1 [ceftriaxone, reference compound]",,,,,,,,,,,,,time to totally eliminate resistant strain [1]: > 240 min; time to eradicate susceptible pneumococcal isolate [1]: 150 min
"CC[C@H]1OC(=O)[C@H](C)[C@@H](O[C@H]2C[C@@](C)(OC)[C@@H](O)[C@H](C)O2)[C@H](C)[C@@H](O[C@@H]2O[C@H](C)C[C@H](N(C)C)[C@H]2O)[C@](C)(O)C[C@@H](C)C(=O)[C@H](C)[C@@H](O)[C@]1(C)O [erythromycin, reference compound]",,,,,,,,,,,,,time to totally eliminate resistant strain [1]: > 240 min; time to eradicate susceptible pneumococcal isolate [1]: 120 min
"FLGGLIKIVPAMICAVRKKC-OH [RN1, ranalexin analog]",>250 (>115.7) micromolar,>250 (>115.7) micromolar,>250 (>115.7) micromolar,250,>250 (>115.7) micromolar,>250 (>115.7) micromolar,250,250,125,,,,
"FLGGLIKKWPWWPWRR-NH2 [RN7-IN9, hybrid peptide of ranalexin and indolicidin]",31.25 (14.7) micromolar,>250 (>117) micromolar,>250 (>117) micromolar,7.81,>250 (>117) micromolar,,7.81,7.81 to 15.6,7.81,31.2,7.81 to 15.62,≤ 150,"concentration at which toxic, WRL-68 [11]: ≥ 62.5 µg/mL; concentration at which toxic, NL-20 [12]: ≥ 125 µg/mL"
"FLGGLIKPVPAMICAVRKKC-OH [RN2, ranalexin analog]",>250 (>116) micromolar,>250 (>116) micromolar,>250 (>116) micromolar,,>250 (>116) micromolar,>250 (>116) micromolar,,,,,,,"MIC E. coli ATCC 25922, in parentheses [5]: >250 (>116) micromolar; MIC MRSA, in parentheses [8]: >250 (>116) micromolar; MIC S. pneumoniae (30 clinical isolates), in parentheses [9]: >250 (>116) micromolar; MIC S. aureus ATCC 25923, in parentheses [10]: >250 (>116) micromolar"
"FLGGLIKPWWPWRR-NH2 [RN7-IN7, hybrid peptide of ranalexin and indolicidin]",125 (69) micromolar,>250 (>138) micromolar,>250 (>138) micromolar,31.2,>250 (>138) micromolar,,31.2,31.2 to 62.5,31.2,62.5,31.25 to 62.5,120,
"FLGGLIKRPPAMICAVRKKC-OH [RN4, ranalexin analog]",>250 (>113) micromolar,>250 (>113) micromolar,>250 (>113) micromolar,,>250 (>113) micromolar,>250 (>113) micromolar,,,,,,,"MIC E. coli ATCC 25922, in parentheses [5]: >250 (>113) micromolar; MIC MRSA, in parentheses [8]: >250 (>113) micromolar; MIC S. pneumoniae (30 clinical isolates), in parentheses [9]: >250 (>113) micromolar; MIC S. aureus ATCC 25923, in parentheses [10]: >250 (>113) micromolar"
"FLGGLIKRVPAMICAVRKKC-OH [RN3, ranalexin analog]",>250 (>113) micromolar,>250 (>113) micromolar,>250 (>113) micromolar,,>250 (>113) micromolar,>250 (>113) micromolar,,,,,,,"MIC E. coli ATCC 25922, in parentheses [5]: >250 (>113) micromolar; MIC MRSA, in parentheses [8]: >250 (>113) micromolar; MIC S. pneumoniae (30 clinical isolates), in parentheses [9]: >250 (>113) micromolar; MIC S. aureus ATCC 25923, in parentheses [10]: >250 (>113) micromolar"
"LLPWKWPWWKWRR-NH2 [IN1, indolicidin analog]",>250 (129) micromolar,>250 (>129) micromolar,>250 (>129) micromolar,31.2,>250 (>129) micromolar,,31.2,31.2 to 62.5,31.2,31.2,31.25 to 62.5,210,
"RLPWRWPRRPWRR-NH2 [IN4, indolicidin analog]",>250 (>130.4) micromolar,>250 (>130.4) micromolar,>250 (>130.4) micromolar,250,>250 (>130.4) micromolar,,250,250,,125,> 250,,MIC S. aureus ATCC 25923 ([10]; broth microdilution): 125 µg/mL
"RRPWRWPRWPWRR-NH2 [IN3, indolicidin analog]",>250 (>125) micromolar,>250 (>125) micromolar,>250 (>125) micromolar,31.2,>250 (>125) micromolar,,62.5,62.5,31.2,31.2,,150,
"RRPWRWPWWPWRR-NH2 [IN2, indolicidin analog]",>250 (>123) micromolar,>250 (>123) micromolar,>250 (>123) micromolar,31.2,>250 (>123) micromolar,,31.2,31.2 to 62.5,31.2,31.2,31.25 to 62.5,210,
